The results in this text go back to US20240025891A1 (Celgene Corporation, priority 2020, published 2024).

The test system of the test is Onchocerca gutturosa adult male worms. The test is described as follows: Onchocerciasis in vitro screening model Onchocerca gutturosa (worm motility score and MTT/formazan colorimetry). As to conditions: Onchocerca gutturosa, read-out: O. gutt Act class.
In the case of `CN(C)C(=O)C1CCCN(c2ccc(Nc3nc(-c4ccccn4)cs3)nc2)C1` (stereo not shown) [Example 158, N,N-dimethyl-1-(6-(4-(pyridin-2-yl)thiazol-2-ylamino)pyridin-3-yl)piperidine-3-carboxamide], the IC50 is under 200 nM.

For the compound `CNC(=O)C1CCCN(c2ccc(Nc3nc(-c4ccccn4)cs3)nc2)C1` (stereo not shown) [Example 159, N-methyl-1-(6-(4-(pyridin-2-yl)thiazol-2-ylamino)pyridin-3-yl)piperidine-3-carboxamide], the IC50 lay in the range of 200 to 500 nM.

Turning to `O=C(NCC(F)(F)F)C1CCCN(c2ccc(Nc3nc(-c4ccccn4)cs3)nc2)C1` (stereo not shown) [Example 160, 1-(6-(4-(pyridin-2-yl)thiazol-2-ylamino)pyridin-3-yl)-N-(2,2,2-trifluoroethyl) piperidine-3-carboxamide], the IC50 is under 200 nM.

On to `Cn1cc(-c2ccnc(Nc3nc(-c4ccccn4)cs3)c2)cn1` [Example 161, N-(4-(1-methyl-1H-pyrazol-4-yl)pyridin-2-yl)-4-(pyridin-2-yl)thiazol-2-amine], for which the IC50 is under 200 nM.

On to `Cc1sc(Nc2cc(C(F)(F)F)ccn2)nc1-c1ccccn1` [Example 162, 5-methyl-4-(pyridin-2-yl)-N-(4-(trifluoromethyl)pyridin-2-yl) thiazol-2-amine], for which the IC50 was under 200 nM.

Regarding `FC(F)(F)c1ccnc(Nc2nc(-c3ccccn3)c(CN3CCCCC3)s2)c1` [Example 164, 5-(piperidin-1-ylmethyl)-4-(pyridin-2-yl)-N-(4-(trifluoromethyl)pyridin-2-yl)thiazol-2-amine], the IC50 was under 200 nM.

As to `OCc1sc(Nc2cc(C(F)(F)F)ccn2)nc1-c1ccccn1` [Example 165, (4-(pyridin-2-yl)-2-(4-(trifluoromethyl)pyridin-2-ylamino)thiazol-5-yl)methanol], the IC50 is under 200 nM.

In the case of `FC(F)(F)c1ccnc(Nc2nc(-c3ccccn3)c(COCC3CC3)s2)c1` [Example 166, 5-((cyclopropyl-methoxy)methyl)-4-(pyridin-2-yl)-N-(4-(trifluoromethyl)pyridin-2-yl) thiazol-2-amine], the IC50 lay within 200 to 500 nM.

For `CCCCc1ccnc(Nc2nc(-c3ccccn3)cs2)c1` [Example 167, N-(4-butylpyridin-2-yl)-4-(pyridin-2-yl)thiazol-2-amine], the IC50 is under 200 nM.

With `c1ccc(-c2csc(Nc3cc(C4CCC4)ccn3)n2)nc1` [Example 168, N-(4-cyclobutyl-pyridin-2-yl)-4-(pyridin-2-yl)thiazol-2-amine], the IC50 is under 200 nM.

Consider `c1ccc(-c2csc(Nc3cc(-c4cccnn4)ccn3)n2)nc1` [Example 169, N-(4-(pyridazin-3-yl)pyridin-2-yl)-4-(pyridin-2-yl)thiazol-2-amine], for which the IC50 is under 200 nM.

On to `O=C(NC1CC1)c1ccnc(Nc2nc(-c3ccccn3)cs2)c1` [Example 170, N-cyclopropyl-2-(4-(pyridin-2-yl)thiazol-2-ylamino) isonicotinamide], for which the IC50 was under 200 nM.

For `CNC(=O)c1ccc(-c2ccnc(Nc3nc(-c4ccccn4)cs3)c2)cc1` [Example 171, N-methyl-4-(2-(4-(pyridin-2-yl)thiazol-2-ylamino)pyridin-4-yl)benzamide], the IC50 is under 200 nM.

As for `CCCc1ccnc(Nc2nc(-c3ccccn3)cs2)c1` [Example 172, N-(4-propylpyridin-2-yl)-4-(pyridin-2-yl)thiazol-2-amine], the IC50 lay within 200 to 500 nM.

Turning to `c1ccc(-c2csc(Nc3cc(-c4cnccn4)ccn3)n2)nc1` [Example 173, N-(4-(pyrazin-2-yl)pyridin-2-yl)-4-(pyridin-2-yl)thiazol-2-amine], the IC50 was under 200 nM.

As to `c1ccc(-c2csc(Nc3cc(-c4ncccn4)ccn3)n2)nc1` [Example 174, 4-(pyridin-2-yl)-N-(4-(pyrimidin-2-yl)pyridin-2-yl)thiazol-2-amine], the IC50 was 200 to 500 nM.

As for `c1ccc(-c2csc(Nc3cc(-c4cccc5ccccc45)ccn3)n2)nc1` [Example 175, N-(4-(naphthalen-1-yl)pyridin-2-yl)-4-(pyridin-2-yl)thiazol-2-amine], the IC50 is under 200 nM.

Consider `c1ccc(-c2csc(Nc3cc(C4CC4)ccn3)n2)nc1` [Example 176, N-(4-cyclopropyl-pyridin-2-yl)-4-(pyridin-2-yl)thiazol-2-amine], for which the IC50 was under 200 nM.

Take `O=C(NCC1CC1)c1ccnc(Nc2nc(-c3ccccn3)cs2)c1` [Example 177, N-(cyclopropyl-methyl)-2-(4-(pyridin-2-yl)thiazol-2-ylamino) isonicotinamide]: the IC50 lay within 500 to 5000 nM.

Regarding `CCNC(=O)c1ccnc(Nc2nc(-c3ccccn3)cs2)c1` [Example 178, N-ethyl-2-(4-(pyridin-2-yl)thiazol-2-ylamino) isonicotinamide], the IC50 was under 200 nM.

`O=C(NC1CC(F)(F)C1)c1ccnc(Nc2ncc(-c3ccccn3)s2)c1` [Example 179, N-(3,3-difluoro-cyclobutyl)-2-(5-(pyridin-2-yl)thiazol-2-ylamino) isonicotinamide]: the IC50 was under 200 nM.

`Cc1ccnc(Nc2nc(-c3ccccn3)c(CCOC3CCC3)s2)c1` [Example 180, 5-(2-cyclobutoxy-ethyl)-N-(4-methylpyridin-2-yl)-4-(pyridin-2-yl)thiazol-2-amine]: the IC50 was under 200 nM.

Regarding `Cc1ccnc(Nc2nc(-c3ccccn3)c(C(C)(C)C)s2)c1` [Example 181, 5-tert-butyl-N-(4-methylpyridin-2-yl)-4-(pyridin-2-yl)thiazol-2-amine], the IC50 was 200 to 500 nM.

With `Cc1ccnc(Nc2nc(-c3ccccn3)c(COCC3CCC3)s2)c1` [Example 182, 5-((cyclobutyl-methoxy)methyl)-N-(4-methylpyridin-2-yl)-4-(pyridin-2-yl)thiazol-2-amine], the IC50 was 200 to 500 nM.

`Cc1ccnc(Nc2nc(-c3ccccn3)c(CN3CCC3)s2)c1` [Example 183, 5-(azetidin-1-ylmethyl)-N-(4-methylpyridin-2-yl)-4-(pyridin-2-yl)thiazol-2-amine]: the IC50 is under 200 nM.

As to `CCc1sc(Nc2cc(C)ccn2)nc1-c1ccccn1` [Example 184, 5-ethyl-N-(4-methylpyridin-2-yl)-4-(pyridin-2-yl)thiazol-2-amine], the IC50 was under 200 nM.

On to `Cc1ccnc(Nc2nc(-c3ccccn3)c(CN3CCCC3)s2)c1` [Example 185, N-(4-methylpyridin-2-yl)-4-(pyridin-2-yl)-5-(pyrrolidin-1-ylmethyl) thiazol-2-amine], for which the IC50 was in the range of 200 to 500 nM.

As for `Cc1sc(Nc2cc(C(F)(F)F)c(C(C)C)cn2)nc1-c1ccccn1` [Example 186, N-(5-isopropyl-4-(trifluoromethyl)pyridin-2-yl)-5-methyl-4-(pyridin-2-yl)thiazol-2-amine], the IC50 was under 200 nM.

Regarding `C[C@@H]1CN(C(=O)c2sc(Nc3cc(C(F)(F)F)ccn3)nc2-c2ccccn2)C[C@H](C)O1` [Example 187, ((2S,6R)-2,6-dimethyl-morpholino) (4-(pyridin-2-yl)-2-(4-(trifluoromethyl)pyridin-2-ylamino)thiazol-5-yl)methanone], the IC50 is under 200 nM.

On to `C[C@@H]1CN(Cc2sc(Nc3cc(C(=O)NCC(F)(F)F)ccn3)nc2-c2ccccn2)C[C@H](C)O1` [Example 188, 2-(5-(((2S,6R)-2,6-dimethyl-morpholino)methyl)-4-(pyridin-2-yl)thiazol-2-ylamino)-N-(2,2,2-trifluoroethyl) isonicotinamide], for which the IC50 was under 200 nM.

Take `N#Cc1sc(Nc2cc(C(F)(F)F)ccn2)nc1-c1ccccn1` [Example 189, 4-(pyridin-2-yl)-2-(4-(trifluoromethyl)pyridin-2-ylamino) thiazole-5-carbonitrile]: the IC50 is 500 to 5000 nM.

With `O=C(c1sc(Nc2cc(C(F)(F)F)ccn2)nc1-c1ccccn1)N1CCC2(CC1)OCCO2` [Example 190, (4-(pyridin-2-yl)-2-(4-(trifluoromethyl)pyridin-2-ylamino)thiazol-5-yl)(1,4-dioxa-8-azaspiro[4.5]decan-8-yl)methanone], the IC50 fell in the range of 500 to 5000 nM.

As for `CN1CCN(C(=O)c2sc(Nc3cc(C(F)(F)F)ccn3)nc2-c2ccccn2)CC1` [Example 191, (4-methylpiperazin-1-yl)(4-(pyridin-2-yl)-2-(4-(trifluoromethyl)pyridin-2-ylamino)thiazol-5-yl)methanone], the IC50 is 500 to 5000 nM.

As to `O=C(c1sc(Nc2cc(C(F)(F)F)ccn2)nc1-c1ccccn1)N1CCN2CCCC2C1` (stereo not shown) [Example 192, (hexahydro-pyrrolo [1,2-a]pyrazin-2(1H)-yl)(4-(pyridin-2-yl)-2-(4-(trifluoromethyl)pyridin-2-ylamino)thiazol-5-yl)methanone], the IC50 fell in the range of 200 to 500 nM.

With `OCc1sc(Nc2cc(F)ccn2)nc1-c1ccccn1` [Example 193, (2-(4-fluoropyridin-2-ylamino)-4-(pyridin-2-yl)thiazol-5-yl)methanol], the IC50 is under 200 nM.

For the compound `CCc1sc(Nc2cccc(C(F)(F)F)n2)nc1-c1ccccn1` [Example 194, 5-ethyl-4-(pyridin-2-yl)-N-(6-(trifluoromethyl)pyridin-2-yl)thiazol-2-amine], the IC50 was in the range of 500 to 5000 nM.

As for `CN(C)Cc1sc(Nc2cc(C(F)(F)F)ccn2)nc1-c1ccccn1` [Example 195, 5-((dimethylamino)methyl)-4-(pyridin-2-yl) N-(4-(trifluoromethyl)pyridin-2-yl)thiazol-2-amine], the IC50 fell in the range of 200 to 500 nM.

Consider `C[C@@H]1CN(Cc2sc(Nc3cc(C(F)(F)F)ccn3)nc2-c2ccccn2)C[C@H](C)N1` [Example 196, 5-(((3R,5S)-3,5-dimethyl-piperazin-1-yl)methyl)-4-(pyridin-2-yl)-N-(4-(trifluoromethyl)pyridin-2-yl)thiazol-2-amine], for which the IC50 is under 200 nM.

Turning to `FC(F)(F)c1ccnc(Nc2nc(-c3ccccn3)c(CN3CCCC3)s2)c1` [Example 197, 4-(pyridin-2-yl)-5-(pyrrolidin-1-ylmethyl)-N-(4-(trifluoromethyl)pyridin-2-yl)thiazol-2-amine], the IC50 fell in the range of 500 to 5000 nM.

Regarding `Cc1sc(Nc2cc(C(=O)NCC(F)(F)F)ccn2)nc1-c1ccccn1` [Example 198, 2-(5-methyl-4-(pyridin-2-yl)thiazol-2-ylamino)-N-(2,2,2-trifluoroethyl) isonicotinamide], the IC50 was under 200 nM.
